Results: a compilation of properties of binary mixtures (doi:10.1016/j.molliq.2016.02.018)

Test: xn = mol fraction of the nth substance listed
Details: 101 kPa

CCCC[n+]1ccn(C)c1.O=S(=O)([N-]S(=O)(=O)C(F)(F)F)C(F)(F)F + CC(=O)[O-].CCCC[n+]1ccn(C)c1
x1 = 1
Details | electrical conductivity [S/m] | viscosity [mPa·s]
283.15 K | 0.207 | 106
298.15 K | 0.404 | 51
333.15 K | 1.18 | 15.5

CC(=O)[O-].CCCC[n+]1ccn(C)c1 + CCCC[n+]1ccn(C)c1.O=S(=O)([N-]S(=O)(=O)C(F)(F)F)C(F)(F)F
Details | electrical conductivity, 283.15 K [S/m] | electrical conductivity, 298.15 K [S/m] | electrical conductivity, 313.15 K [S/m] | electrical conductivity, 314.3 K [S/m] | electrical conductivity, 333.15 K [S/m] | viscosity, 283.15 K [mPa·s] | viscosity, 298.15 K [mPa·s] | viscosity, 313.15 K [mPa·s] | viscosity, 314.3 K [mPa·s] | viscosity, 333.15 K [mPa·s]
x2 = 0 | – | 0.0522 | – | 0.146 | 0.369 | – | 441 | – | 132 | 54.7
x2 = 0.1057 | – | 0.0683 | – | – | – | – | 343 | – | – | –
x2 = 0.2396 | 0.0292 | 0.0856 | 0.196 | – | 0.46 | 817 | 255 | 102 | – | 40.3
x2 = 0.321 | – | – | – | 0.237 | – | – | – | – | 70 | –
x2 = 0.3662 | – | 0.109 | – | – | 0.514 | – | 192 | – | – | 34.3
x2 = 0.5245 | 0.0623 | 0.153 | 0.309 | 0.33 | 0.639 | 357 | 134 | 62 | – | 27.9
x2 = 0.6541 | 0.0888 | 0.203 | – | – | 0.755 | 248 | 101 | – | – | 23.5
x2 = 0.8097 | 0.133 | – | – | – | 0.932 | 165 | – | – | – | 19.4
